Reference: patent publication US20090098130A1, “GLUCAGON-LIKE PROTEIN-1 RECEPTOR (GLP-1R) AGONIST COMPOUNDS” (priority 2007, published 2009)
Non-standard residues stand in square brackets, D forms with d. Residues, ends and D or L forms follow the SMILES beside them. Aib = CC(C)(N)C(=O)O

test system: pancreatic β cells; test: glucose-stimulated insulin secretion (GSIS) assay; type: cell-based; details: GA targeting agent-linker conjugate; GSIS assay in vitro
Procedure: Briefly, glucose and GA targeting peptide was added at various concentrations to pancreatic β cell cultures, and insulin secretion was detected by measuring insulin levels over time. EC50 was calculated for each peptide.
The ability of these GA targeting agent-linker conjugates to stimulate […] secretion in vitro was measured using the GSIS assay described in Example 27. […] Each of these peptides contained a side-chain modified Lys residue according to the scheme illustrated in FIG. 30 at a different position.

EC50 | Compound
< 10 µM | CC[C@H](C)[C@H](NC(=O)[C@H](Cc1ccccc1)NC(=O)[C@H](CCC(=O)O)NC(=O)[C@H](CCCCN)NC(=O)[C@H](C)NC(=O)[C@H](C)NC(=O)[C@H](CCC(N)=O)NC(=O)CNC(=O)[C@H](CCC(=O)O)NC(=O)[C@H](CC(C)C)NC(=O)[C@H](Cc1ccc(O)cc1)NC(=O)[C@H](CO)NC(=O)[C@H](CO)NC(=O)[C@@H](NC(=O)[C@H](CC(=O)O)NC(=O)[C@H](CO)NC(=O)[C@@H](NC(=O)[C@H](Cc1ccccc1)NC(=O)[C@@H](NC(=O)CNC(=O)[C@H](CCC(=O)O)NC(=O)CNC(=O)[C@H](Cc1c[nH]cn1)NC(=O)CCOCCOCCOCCOCCNC(=O)CCCC(=O)Nc1ccc(CCC(=O)CC(C)=O)cc1)[C@@H](C)O)[C@@H](C)O)C(C)C)C(=O)N[C@@H](C)C(=O)N[C@@H](Cc1c[nH]c2ccccc12)C(=O)N[C@@H](CC(C)C)C(=O)N[C@H](C(=O)N[C@@H](CCCCN)C(=O)NCC(=O)N[C@@H](CCCNC(=N)N)C(=O)N[C@@H](CCCCN)C(N)=O)C(C)C

same assay, conditions: GA targeting peptide; insulin secretion from pancreatic β cell cultures in vitro with glucose

EC50 | Compound
< 10 µM | CC[C@H](C)[C@H](NC(=O)[C@H](Cc1ccccc1)NC(=O)[C@H](CCC(=O)O)NC(=O)[C@H](CCCCN)NC(=O)[C@H](C)NC(=O)[C@H](C)NC(=O)[C@H](CCC(N)=O)NC(=O)CNC(=O)[C@H](CCC(=O)O)NC(=O)[C@H](CS)NC(=O)[C@H](Cc1ccc(O)cc1)NC(=O)[C@H](CO)NC(=O)[C@H](CO)NC(=O)[C@@H](NC(=O)[C@H](CC(=O)O)NC(=O)[C@H](CO)NC(=O)[C@@H](NC(=O)[C@H](Cc1ccccc1)NC(=O)[C@@H](NC(=O)CNC(=O)[C@H](CCC(=O)O)NC(=O)C(C)(C)NC(=O)[C@@H](N)Cc1c[nH]cn1)[C@@H](C)O)[C@@H](C)O)C(C)C)C(=O)N[C@@H](C)C(=O)N[C@@H](Cc1c[nH]c2ccccc12)C(=O)N[C@@H](CC(C)C)C(=O)N[C@H](C(=O)N[C@@H](CCCCN)C(=O)NC(C)(C)C(=O)N[C@@H](CCCNC(=N)N)C(N)=O)C(C)C [SEQ ID NO: 41] (H-H[Aib]EGTFTSDVSSYCEGQAAKEFIAWLVK[Aib]R-NH2)
< 10 µM | CC[C@H](C)[C@H](NC(=O)[C@H](Cc1ccccc1)NC(=O)[C@H](CCC(=O)O)NC(=O)[C@H](CCCCN)NC(=O)[C@H](C)NC(=O)[C@H](C)NC(=O)[C@H](CCC(N)=O)NC(=O)CNC(=O)[C@H](CCC(=O)O)NC(=O)[C@H](CC(C)C)NC(=O)[C@H](Cc1ccc(O)cc1)NC(=O)[C@H](CO)NC(=O)[C@H](CO)NC(=O)[C@@H](NC(=O)[C@H](CC(=O)O)NC(=O)[C@H](CO)NC(=O)[C@@H](NC(=O)[C@H](Cc1ccccc1)NC(=O)[C@@H](NC(=O)CNC(=O)[C@H](CCC(=O)O)NC(=O)C(C)(C)NC(=O)[C@@H](N)Cc1c[nH]cn1)[C@@H](C)O)[C@@H](C)O)C(C)C)C(=O)N[C@@H](C)C(=O)N[C@@H](Cc1ccccc1)C(=O)N[C@@H](CC(C)C)C(=O)N[C@H](C(=O)N[C@@H](CCCCN)C(=O)NC(C)(C)C(=O)N[C@@H](CCCNC(=N)N)C(N)=O)C(C)C [SEQ ID NO: 53]
< 10 µM | CC[C@H](C)[C@H](NC(=O)[C@H](Cc1ccccc1)NC(=O)[C@H](CCC(=O)O)NC(=O)[C@H](CCCCN)NC(=O)[C@H](C)NC(=O)[C@H](C)NC(=O)[C@H](CCC(N)=O)NC(=O)[C@H](CCC(=O)O)NC(=O)[C@H](CCC(=O)O)NC(=O)[C@H](CC(C)C)NC(=O)[C@H](Cc1ccc(O)cc1)NC(=O)[C@H](CO)NC(=O)[C@H](CO)NC(=O)[C@@H](NC(=O)[C@H](CC(=O)O)NC(=O)[C@H](CO)NC(=O)[C@@H](NC(=O)[C@H](Cc1ccccc1)NC(=O)[C@@H](NC(=O)CNC(=O)[C@H](CCC(=O)O)NC(=O)C(C)(C)NC(=O)[C@@H](N)Cc1c[nH]cn1)[C@@H](C)O)[C@@H](C)O)C(C)C)C(=O)N[C@@H](C)C(=O)N[C@@H](Cc1c[nH]c2ccccc12)C(=O)N[C@@H](CC(C)C)C(=O)N[C@H](C(=O)N[C@@H](CCCCN)C(=O)NC(C)(C)C(=O)N[C@@H](CCCNC(=N)N)C(N)=O)C(C)C [SEQ ID NO: 45] (H-H[Aib]EGTFTSDVSSYLEEQAAKEFIAWLVK[Aib]R-NH2)
< 10 µM | CC[C@H](C)[C@H](NC(=O)[C@H](Cc1ccccc1)NC(=O)[C@H](CCC(=O)O)NC(=O)[C@H](CCCCN)NC(=O)[C@@H](NC(=O)[C@H](C)NC(=O)[C@H](CCC(N)=O)NC(=O)[C@H](CCC(=O)O)NC(=O)[C@H](CCC(=O)O)NC(=O)[C@H](CC(C)C)NC(=O)[C@H](Cc1ccc(O)cc1)NC(=O)[C@H](CO)NC(=O)[C@H](CO)NC(=O)[C@@H](NC(=O)[C@H](CC(=O)O)NC(=O)[C@H](CO)NC(=O)[C@@H](NC(=O)[C@H](Cc1ccccc1)NC(=O)[C@@H](NC(=O)CNC(=O)[C@H](CCC(=O)O)NC(=O)C(C)(C)NC(=O)[C@@H](N)Cc1c[nH]cn1)[C@@H](C)O)[C@@H](C)O)C(C)C)C(C)C)C(=O)N[C@@H](C)C(=O)N[C@@H](Cc1c[nH]c2ccccc12)C(=O)N[C@@H](CC(C)C)C(=O)N[C@H](C(=O)N[C@@H](CCCNC(=N)N)C(=O)NC(C)(C)C(=O)N[C@@H](CCCNC(=N)N)C(N)=O)[C@@H](C)CC [SEQ ID NO: 61] (H-H[Aib]EGTFTSDVSSYLEEQAVKEFIAWLIR[Aib]R-NH2)
< 10 µM | CC[C@H](C)[C@H](NC(=O)[C@H](Cc1ccccc1)NC(=O)[C@H](CCC(=O)O)NC(=O)[C@H](CCCCN)NC(=O)[C@H](CC(C)C)NC(=O)[C@H](C)NC(=O)[C@H](CCC(N)=O)NC(=O)CNC(=O)[C@H](CCC(=O)O)NC(=O)[C@H](CC(C)C)NC(=O)[C@H](Cc1ccc(O)cc1)NC(=O)[C@H](CO)NC(=O)[C@H](CO)NC(=O)[C@@H](NC(=O)[C@H](CC(=O)O)NC(=O)[C@H](CO)NC(=O)[C@@H](NC(=O)[C@H](Cc1ccccc1)NC(=O)[C@@H](NC(=O)CNC(=O)[C@H](CCC(=O)O)NC(=O)C(C)(C)NC(=O)[C@@H](N)Cc1c[nH]cn1)[C@@H](C)O)[C@@H](C)O)C(C)C)C(=O)N[C@@H](C)C(=O)N[C@@H](Cc1c[nH]c2ccccc12)C(=O)N[C@@H](CC(C)C)C(=O)N[C@H](C(=O)N[C@@H](CCCCN)C(=O)NC(C)(C)C(=O)N[C@@H](CCCNC(=N)N)C(N)=O)C(C)C [SEQ ID NO: 50] (H-H[Aib]EGTFTSDVSSYLEGQALKEFIAWLVK[Aib]R-NH2)
< 10 µM | CC[C@H](C)[C@H](NC(=O)[C@H](Cc1ccccc1)NC(=O)[C@H](CCC(=O)O)NC(=O)[C@H](CCCCN)NC(=O)[C@H](C)NC(=O)[C@H](C)NC(=O)[C@H](CCC(N)=O)NC(=O)[C@H](CCCCN)NC(=O)[C@H](CCC(=O)O)NC(=O)[C@H](CC(C)C)NC(=O)[C@H](Cc1ccc(O)cc1)NC(=O)[C@H](CO)NC(=O)[C@H](CO)NC(=O)[C@@H](NC(=O)[C@H](CC(=O)O)NC(=O)[C@H](CO)NC(=O)[C@@H](NC(=O)[C@H](Cc1ccccc1)NC(=O)[C@@H](NC(=O)CNC(=O)[C@H](CCC(=O)O)NC(=O)C(C)(C)NC(=O)[C@@H](N)Cc1c[nH]cn1)[C@@H](C)O)[C@@H](C)O)C(C)C)C(=O)N[C@@H](C)C(=O)N[C@@H](Cc1c[nH]c2ccccc12)C(=O)N[C@@H](CC(C)C)C(=O)N[C@H](C(=O)N[C@@H](CCCCN)C(=O)NC(C)(C)C(=O)N[C@@H](CCCNC(=N)N)C(N)=O)C(C)C [SEQ ID NO: 47] (H-H[Aib]EGTFTSDVSSYLEKQAAKEFIAWLVK[Aib]R-NH2)
< 10 µM | CC[C@H](C)[C@H](NC(=O)[C@H](Cc1ccccc1)NC(=O)[C@H](CCC(=O)O)NC(=O)[C@H](CCCCN)NC(=O)[C@H](C)NC(=O)[C@H](C)NC(=O)[C@H](CCC(N)=O)NC(=O)CNC(=O)[C@H](CCC(=O)O)NC(=O)CNC(=O)[C@H](Cc1ccc(O)cc1)NC(=O)[C@H](CO)NC(=O)[C@H](CO)NC(=O)[C@@H](NC(=O)[C@H](CC(=O)O)NC(=O)[C@H](CO)NC(=O)[C@@H](NC(=O)[C@H](Cc1ccccc1)NC(=O)[C@@H](NC(=O)CNC(=O)[C@H](CCC(=O)O)NC(=O)C(C)(C)NC(=O)[C@@H](N)Cc1c[nH]cn1)[C@@H](C)O)[C@@H](C)O)C(C)C)C(=O)N[C@@H](C)C(=O)N[C@@H](Cc1c[nH]c2ccccc12)C(=O)N[C@@H](CC(C)C)C(=O)N[C@H](C(=O)N[C@@H](CCCCN)C(=O)NC(C)(C)C(=O)N[C@@H](CCCNC(=N)N)C(N)=O)C(C)C [SEQ ID NO: 40] (H-H[Aib]EGTFTSDVSSYGEGQAAKEFIAWLVK[Aib]R-NH2)
< 10 µM | CC[C@H](C)[C@H](NC(=O)[C@H](Cc1ccccc1)NC(=O)[C@H](CCC(=O)O)NC(=O)[C@H](CCCNC(=N)N)NC(=O)[C@H](C)NC(=O)[C@H](C)NC(=O)[C@H](CCC(N)=O)NC(=O)CNC(=O)[C@H](CCC(=O)O)NC(=O)[C@H](CC(C)C)NC(=O)[C@H](Cc1ccc(O)cc1)NC(=O)[C@H](CO)NC(=O)[C@H](CO)NC(=O)[C@@H](NC(=O)[C@H](CC(=O)O)NC(=O)[C@H](CO)NC(=O)[C@@H](NC(=O)[C@H](Cc1ccccc1)NC(=O)[C@@H](NC(=O)CNC(=O)[C@H](CCC(=O)O)NC(=O)C(C)(C)NC(=O)[C@@H](N)Cc1c[nH]cn1)[C@@H](C)O)[C@@H](C)O)C(C)C)C(=O)N[C@@H](C)C(=O)N[C@@H](Cc1c[nH]c2ccccc12)C(=O)N[C@@H](CC(C)C)C(=O)N[C@H](C(=O)N[C@@H](CCCCN)C(=O)NC(C)(C)C(=O)N[C@@H](CCCNC(=N)N)C(N)=O)C(C)C [SEQ ID NO: 51] (H-H[Aib]EGTFTSDVSSYLEGQAAREFIAWLVK[Aib]R-NH2)

Compound | EC50
CC[C@H](C)[C@H](NC(=O)[C@H](Cc1ccccc1)NC(=O)[C@H](CCC(=O)O)NC(=O)[C@H](CCCCN)NC(=O)[C@H](C)NC(=O)[C@H](C)NC(=O)[C@H](CCC(N)=O)NC(=O)CNC(=O)[C@H](CCC(=O)O)NC(=O)[C@H](CC(C)C)NC(=O)[C@H](Cc1ccc(O)cc1)NC(=O)[C@H](CO)NC(=O)[C@H](CO)NC(=O)[C@@H](NC(=O)[C@H](CC(=O)O)NC(=O)[C@H](CO)NC(=O)[C@@H](NC(=O)[C@H](Cc1ccccc1)NC(=O)[C@@H](NC(=O)CNC(=O)[C@H](CCC(=O)O)NC(=O)[C@H](C)NC(=O)[C@@H](N)Cc1c[nH]cn1)[C@@H](C)O)[C@@H](C)O)C(C)C)C(=O)N[C@@H](C)C(=O)N[C@@H](Cc1c[nH]c2ccccc12)C(=O)N[C@@H](CC(C)C)C(=O)N[C@H](C(=O)N[C@@H](CCCCN)C(=O)NCC(=O)N[C@@H](CCCNC(=N)N)C(N)=O)C(C)C [SEQ ID NO: 1, reference compound] | < 10 µM
